Target: human PCSK9 (Homo sapiens, UniProt Q8NBP7)
Assay: PCSK9 ligand binding assay (TR-FRET): interference with binding of human PCSK9 to human LDLR
Details: for IC50: Human PCSK9 Alexa Fluor 647 / Human LDLR extracellular domain-Europium Kryptate; for Max % inhibition: efficacy (Amax), 100% = 1 uM unlabeled human PCSK9, 0% = DMSO
Method: Example 10: PCSK9 Ligand Binding Assay
The PCSK9 binding of the compounds of the disclosure were measured using a time resolved fluorescence resonance energy transfer (TR-FRET) assay. This time resolved fluorescence resonance energy transfer (TR-FRET) assay measures the ability of a compound of the present disclosure to interfere with the binding of human PCSK9 to human LDLR, providing measures of both potency (IC50) and efficacy (Amax).
Human PCSK9 Alexa Fluor 647
Human LDLR extracellular domain-Europium Kryptate
Proxi plate-low volume assay plate (PerkinElmer #6008280)
Greiner V-bottom (Greiner BioOne #781280)
Assay Buffer • 20 mM HEPES, pH 7.5 • 150 mM NaCl • 1 mM CaCl2 • 0.01% v/v Tween20 • 0.01% w/v BSA
A master compound plate was prepared in a Greiner V bottom plate by diluting compounds of the disclosure in dimethylsulfoxide to the correct concentration for the desired top concentration based on the desired final concentration: for a 30 uM final concentration the master plate concentration is 1.5 mM (68 uL DMSO+12 uL 10 mM of a compound of the disclosure), for a 10 uM final concentration the master plate concentration is 0.5 mM (76 uL DMSO+4 uL 10 mM of a compound of the disclosure), for a 3 uM final concentration the master plate concentration is 150 uM (69 uL DMSO+1 uL 10 mM of a compound of the disclosure). These solutions were pipetted into columns 1 and 11 of the compound plate. Threefold serial dilutions were generated in columns 2-10 and 12-20 of the compound plate by transferring 10 uL into 20 uL of DMSO. Columns 21 and 22 of the compound plate were negative controls containing DMSO alone.
An intermediate plate was generated in a Greiner V bottom plate by transferring 8 uL from each well of the master plate into a corresponding well containing 92 uL of assay buffer and mixing thoroughly.
A Proxi plate-low volume assay plate was used for the assay. To all wells of the plate was added 10 uL of 16 nM Human PCSK9 Alexa Fluor 647, followed by 5 uL from the intermediate plate. For the positive control wells in columns 23 and 24 of the plate, 5 uL of unlabeled human PCSK9 was added at 4 uM in assay buffer containing 8% DMSO. Following a 30 minute incubation, 5 uL of 4 nM Human LDLR extracellular domain-Europium Kryptate was added and the mixture was incubated for an additional 2 hours.
The TR-FRET signal was measured on an EnVision or PheraStar instrument with a 60 ms delay, 330 nm excitation and 665 nm emission (FRET), and 330 nm excitation and 615 nm (Europium). The FRET ratio (FRET/Europium) was used for calculations.
No inhibition (0%) was observed from the wells containing DMSO (Control) in columns 21 and 22 of the compound plate. Full inhibition (100%) was observed from the wells containing 1 uM human PCSK9 (Control) in columns 23 and 24 of the plate. Data is expressed as percent inhibition: (value—0%)/(100%-0%).

human PCSK9, sequence (Q8NBP7 153-692): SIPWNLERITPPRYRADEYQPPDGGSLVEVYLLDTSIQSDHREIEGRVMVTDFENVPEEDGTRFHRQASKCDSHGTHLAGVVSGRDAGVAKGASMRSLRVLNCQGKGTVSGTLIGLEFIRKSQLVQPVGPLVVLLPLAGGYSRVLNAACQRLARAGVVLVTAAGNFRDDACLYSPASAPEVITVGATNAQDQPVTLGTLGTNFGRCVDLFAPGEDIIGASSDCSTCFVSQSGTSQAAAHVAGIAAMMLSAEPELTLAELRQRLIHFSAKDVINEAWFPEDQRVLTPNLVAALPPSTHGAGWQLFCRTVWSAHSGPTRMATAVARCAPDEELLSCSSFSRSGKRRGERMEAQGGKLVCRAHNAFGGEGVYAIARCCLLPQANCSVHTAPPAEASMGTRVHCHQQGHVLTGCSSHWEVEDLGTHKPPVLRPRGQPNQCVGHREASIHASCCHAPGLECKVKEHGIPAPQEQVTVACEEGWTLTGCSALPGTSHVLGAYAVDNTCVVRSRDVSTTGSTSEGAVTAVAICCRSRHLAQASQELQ
human PCSK9, sequence (Q8NBP7 31-152 partner limits assumed): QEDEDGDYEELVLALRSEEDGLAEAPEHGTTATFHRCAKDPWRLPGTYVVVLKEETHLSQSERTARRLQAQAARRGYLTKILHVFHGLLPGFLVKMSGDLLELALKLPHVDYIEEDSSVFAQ

Row | IC50 | Max % inhibition | SMILES
1 | 0.562 nM | 103.2% | C[C@H]1C(=O)N[C@@H](CO)C(=O)N[C@@]2(Cc3ccc(Cl)cc3)CCCN(C2)C(=O)[C@H](Cc2ccccn2)CC(=O)N1Cc1ccc(Cl)cc1Oc1ccc(-c2cnc(CN3CCCC3)n2C)cc1 [Compound 1, (3R,7S,10S,13R)-6-(4-Chloro-2-(4-(1-methyl-2-(pyrrolidin-1-ylmethyl)-1H-imidazol-5-yl)phenoxy)benzyl)-13-(4-chlorobenzyl)-10-(hydroxymethyl)-7-methyl-3-(pyridin-2-ylmethyl)-1,6,9,12-tetraazabicyclo[11.3.1]heptadecane-2,5,8,11-tetraone]
2 | 0.847 nM | 112.5% | COC[C@@H]1NC(=O)[C@H](C)N(Cc2ccc(Cl)cc2Oc2ccc(-c3cnc(CN(C)C)n3C)cc2)C(=O)C[C@@H](CC(F)(F)F)C(=O)N2CCC[C@@](Cc3ccc(Cl)cc3)(C2)NC1=O [Compound 2, (3S, 7S, 10S, 13R)-6-(4-chloro-2-(4-(2-((dimethylamino)methyl)-1-methyl-1H-imidazol-5-yl)phenoxy)benzyl)-13-(4-chlorobenzyl)-10-(methoxymethyl)-7-methyl-3-(2,2,2-trifluoroethyl)-1,6,9,12-tetraazabicyclo[11.3.1]heptadecane-2,5,8,11-tetraone]
3 | 0.452 nM | 113.9% | COC[C@@H]1NC(=O)[C@H](C)N(Cc2c(F)cc(Cl)cc2Oc2ccc(-c3cnc(CN(C)C)n3C)cc2)C(=O)C[C@@H](Cc2cccc[n+]2[O-])C(=O)N2CCC[C@@](Cc3ccc(Cl)cc3)(C2)N(C)C1=O [Compound 3, 2-(((3R, 7S, 10S, 13R)-6-(4-chloro-2-(4-(2-((dimethylamino)methyl)-1-methyl-1H-imidazol-5-yl)phenoxy)-6-fluorobenzyl)-13-(4-chlorobenzyl)-10-(methoxymethyl)-7,12-dimethyl-2,5,8,11-tetraoxo-1,6,9,12-tetraazabicyclo[11.3.1]heptadecan-3-yl)methyl)pyridine 1-oxide]
4 | 0.558 nM | 106.4% | COC[C@@H]1NC(=O)[C@H](C)N(Cc2ccc(Cl)cc2Oc2ccc(-c3cnc(CN(C)C)n3C)cc2)C(=O)C[C@@H](Cc2cccc(C)n2)C(=O)N2CCC[C@@](Cc3ccc(Cl)cc3)(C2)NC1=O [Compound 4, (3R,7S,10S,13R)-6-(4-Chloro-2-(4-(2-((dimethylamino)methyl)-1-methyl-1H-imidazol-5-yl)phenoxy)benzyl)-13-(4-chlorobenzyl)-10-(methoxymethyl)-7-methyl-3-((6-methylpyridin-2-yl)methyl)-1,6,9,12-tetraazabicyclo[11.3.1]heptadecane-2,5,8,11-tetraone]
5 | 0.4 nM | 101.9% | C[C@H]1C(=O)N[C@@H](CO)C(=O)N[C@@]2(Cc3ccc(Cl)cc3)CCCN(C2)C(=O)[C@H](CC(F)(F)F)CC(=O)N1Cc1c(F)cc(Cl)cc1Oc1ccc(-c2cnc(CNC3CCC3)n2C)cc1 [Compound 5, (3S, 7S, 10S, 13R)-6-(4-chloro-2-(4-(2-((cyclobutylamino)methyl)-1-methyl-1H-imidazol-5-yl)phenoxy)-6-fluorobenzyl)-13-(4-chlorobenzyl)-10-(hydroxymethyl)-7-methyl-3-(2,2,2-trifluoroethyl)-1,6,9,12-tetraazabicyclo[11.3.1]heptadecane-2,5,8,11-tetraone]
6 | 0.956 nM | 119.9% | COC[C@@H]1NC(=O)[C@H](C)N(Cc2ccc(Cl)cc2Oc2ccc(-c3cnc(CNC(C)(C)C)n3C)cc2)C(=O)C[C@@H](CC(F)(F)F)C(=O)N2CCC[C@@](Cc3ccc(Cl)cc3)(C2)NC1=O [Compound 6, (3S, 7S, 10S, 13R)-6-(2-(4-(2-((tert-butylamino)methyl)-1-methyl-1H-imidazol-5-yl)phenoxy)-4-chlorobenzyl)-13-(4-chlorobenzyl)-10-(methoxymethyl)-7-methyl-3-(2,2,2-trifluoroethyl)-1,6,9,12-tetraazabicyclo[11.3.1]heptadecane-2,5,8,11-tetraone]

— patent US11813306B2, “Cyclic tetramer compounds as proprotein convertase subtilisin/kexin type 9 (PCSK9) inhibitors for the treatment of metabolic disorders” (NOVARTIS AG, priority 2018, dated 2023)
